For this assay, the target named is T1, human PAH with the R408W mutation (Homo sapiens, UniProt P00439, R408W).
T1 construct: expressed in transfected cells
T1 sequence (P00439 1-452 R408W): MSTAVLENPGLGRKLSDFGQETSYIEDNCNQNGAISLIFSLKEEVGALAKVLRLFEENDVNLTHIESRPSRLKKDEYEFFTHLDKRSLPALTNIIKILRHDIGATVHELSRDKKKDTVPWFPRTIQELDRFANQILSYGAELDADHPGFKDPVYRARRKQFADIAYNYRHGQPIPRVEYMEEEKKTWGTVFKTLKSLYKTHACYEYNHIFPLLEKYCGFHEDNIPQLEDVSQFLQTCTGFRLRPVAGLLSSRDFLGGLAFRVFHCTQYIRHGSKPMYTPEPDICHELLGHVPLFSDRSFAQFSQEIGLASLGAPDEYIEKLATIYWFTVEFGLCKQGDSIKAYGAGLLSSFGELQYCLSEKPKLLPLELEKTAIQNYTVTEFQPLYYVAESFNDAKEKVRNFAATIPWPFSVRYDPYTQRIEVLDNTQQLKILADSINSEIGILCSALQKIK
The experiment in a line: Cell Based Phenylalanine Flux Assay. Particulars: A375 cells expressing human R408W PAH; 24 hrs compound incubation; 13C-Tyrosine by LC-MS; average where tested multiple times; read-out: AC50.

Results on 35 compounds are retold here after patent US20250171438A1 (Agios Pharmaceuticals, Inc., priority 2022, published 2025).

As to `O=C(c1cnn2ccccc12)N1CCc2[nH]cnc2[C@@H]1c1nc2cccc(F)c2s1` [Example 1110, (R)-(4-(7-fluorobenzo[d]thiazol-2-yl)-6,7-dihydro-1H-imidazo[4,5-c]pyridin-5(4H)-yl)(pyrazolo[1,5-a]pyridin-3-yl)methanone], the concentration at half-maximal activity (AC50) (as a rule, the concentration at which the activity in the assay is half-maximal) fell in the range of 0.5 to 1 µM. `O=C(c1cnn2ccccc12)N1CCc2nc[nH]c2[C@H]1c1nc2c(F)cccc2s1` [Example 1111, (S)-(4-(4-fluorobenzo[d]thiazol-2-yl)-6,7-dihydro-3H-imidazo[4,5-c]pyridin-5(4H)-yl)(pyrazolo[1,5-a]pyridin-3-yl)methanone]: the concentration at half-maximal activity (AC50) fell in the range of 0.5 to 1 µM. `O=C(c1cnn2ccccc12)N1CCc2nc[nH]c2[C@@H]1c1nc2c(F)cccc2s1` [Example 1112, (R)-(4-(4-fluorobenzo[d]thiazol-2-yl)-6,7-dihydro-3H-imidazo[4,5-c]pyridin-5(4H)-yl)(pyrazolo[1,5-a]pyridin-3-yl)methanone]: the AC50 lay in the range of 1 to 5 µM. On to `O=C(CCC1CC1)N1CCc2nc[nH]c2[C@H]1c1nc2c(F)cccc2s1` [Example 1113, (S)-3-cyclopropyl-1-(4-(4-fluorobenzo[d]thiazol-2-yl)-6,7-dihydro-3H-imidazo[4,5-c]pyridin-5(4H)-yl)propan-1-one], for which the half-maximal activity concentration (AC50) is 1 to 5 µM. For the compound `O=C(CCC1CC1)N1CCc2nc[nH]c2[C@@H]1c1nc2c(F)cccc2s1` [Example 1114, (R)-3-cyclopropyl-1-(4-(4-fluorobenzo[d]thiazol-2-yl)-6,7-dihydro-3H-imidazo[4,5-c]pyridin-5(4H)-yl)propan-1-one], the AC50 was > 5 µM. For the compound `CCc1nnc(CCC(=O)N2CCc3[nH]cnc3[C@H]2c2nc3ccccc3s2)s1` [Example 1115], the concentration at half-maximal activity (AC50) was in the range of 0.5 to 1 µM. On to `CCc1nnc(CCC(=O)N2CCc3[nH]cnc3[C@@H]2c2nc3ccccc3s2)s1` [Example 1116, (R)-1-(4-(benzo[d]thiazol-2-yl)-6,7-dihydro-1H-imidazo[4,5-c]pyridin-5(4H)-yl)-3-(5-ethyl-1,3,4-thiadiazol-2-yl)propan-1-one], for which the AC50 was > 5 µM. Regarding `O=C(CC1CC1)N1CCc2[nH]cnc2[C@H]1c1nc2ccc(F)cc2s1` [Example 1117, (S)-2-cyclopropyl-1-(4-(6-fluorobenzo[d]thiazol-2-yl)-6,7-dihydro-1H-imidazo[4,5-c]pyridin-5(4H)-yl)ethanone], the half-maximal activity concentration (AC50) is < 0.5 µM. Take `O=C(CC1CC1)N1CCc2[nH]cnc2[C@@H]1c1nc2ccc(F)cc2s1` [Example 1118, (R)-2-cyclopropyl-1-(4-(6-fluorobenzo[d]thiazol-2-yl)-6,7-dihydro-1H-imidazo[4,5-c]pyridin-5(4H)-yl)ethanone]: the AC50 is > 5 µM.

With `O=C(c1nccs1)N1CCc2nc[nH]c2[C@@H]1c1nc2c(F)cccc2s1` [Example 1119, (R)-(4-(4-fluorobenzo[d]thiazol-2-yl)-6,7-dihydro-3H-imidazo[4,5-c]pyridin-5(4H)-yl)(thiazol-2-yl)methanone], the half-maximal activity concentration (AC50) lay in the range of 1 to 5 µM.

Turning to `O=C(c1nccs1)N1CCc2nc[nH]c2[C@H]1c1nc2c(F)cccc2s1` [Example 1120, (S)-(4-(4-fluorobenzo[d]thiazol-2-yl)-6,7-dihydro-3H-imidazo[4,5-c]pyridin-5(4H)-yl)(thiazol-2-yl)methanone], the AC50 lay in the range of 0.5 to 1 µM. `O=C(CCc1nccs1)N1CCc2[nH]cnc2[C@H]1c1nc2cccc(Br)c2s1` [Example 1121, (S)-1-(4-(7-bromobenzo[d]thiazol-2-yl)-6,7-dihydro-1H-imidazo[4,5-c]pyridin-5(4H)-yl)-3-(thiazol-2-yl)propan-1-one]: the half-maximal activity concentration (AC50) lay in the range of 0.5 to 1 µM.

`O=C(CCc1nccs1)N1CCc2[nH]cnc2[C@@H]1c1nc2cccc(Br)c2s1` [Example 1122, (R)-1-(4-(7-bromobenzo[d]thiazol-2-yl)-6,7-dihydro-1H-imidazo[4,5-c]pyridin-5(4H)-yl)-3-(thiazol-2-yl)propan-1-one]: the AC50 lay within 1 to 5 µM. Regarding `O=C(c1ccno1)N1CCc2[nH]cnc2[C@H]1c1nc2ccccc2s1` [Example 1123], the concentration at half-maximal activity (AC50) was 0.5 to 1 µM.

In the case of `O=C(c1ccno1)N1CCc2[nH]cnc2[C@@H]1c1nc2ccccc2s1` [Example 1124, (R)-(4-(benzo[d]thiazol-2-yl)-6,7-dihydro-1H-imidazo[4,5-c]pyridin-5(4H)-yl)(isoxazol-5-yl)methanone], the half-maximal activity concentration (AC50) was > 5 µM.

In the case of `Cc1ccn2ncc(C(=O)N3CCc4[nH]cnc4[C@H]3c3nc4ccccc4s3)c2c1` [Example 1125], the AC50 lay in the range of 1 to 5 µM. For `Cc1ccn2ncc(C(=O)N3CCc4[nH]cnc4[C@@H]3c3nc4ccccc4s3)c2c1` [Example 1126, (R)-(4-(benzo[d]thiazol-2-yl)-6,7-dihydro-1H-imidazo[4,5-c]pyridin-5(4H)-yl)(5-methylpyrazolo[1,5-a]pyridin-3-yl)methanone], the half-maximal activity concentration (AC50) fell in the range of 1 to 5 µM. With `O=C(c1cc2cccnn2c1)N1CCc2[nH]cnc2[C@H]1c1nc2ccccc2s1` [Example 1127], the AC50 fell in the range of 0.5 to 1 µM. As for `O=C(c1cc2cccnn2c1)N1CCc2[nH]cnc2[C@@H]1c1nc2ccccc2s1` [Example 1128, (R)-(4-(benzo[d]thiazol-2-yl)-6,7-dihydro-1H-imidazo[4,5-c]pyridin-5(4H)-yl)(pyrrolo[1,2-b]pyridazin-6-yl)methanone], the concentration at half-maximal activity (AC50) is > 5 µM. Regarding `O=C(c1nc2ccccc2o1)N1CCc2[nH]cnc2[C@H]1c1nc2ccccc2s1` [Example 1129, (S)-benzo[d]oxazol-2-yl(4-(benzo[d]thiazol-2-yl)-1,4,6,7-tetrahydro-5H-imidazo[4,5-c]pyridin-5-yl)methanone], the concentration at half-maximal activity (AC50) is < 0.5 µM.

Regarding `O=C(c1nc2ccccc2o1)N1CCc2[nH]cnc2[C@@H]1c1nc2ccccc2s1` [Example 1130, (R)-benzo[d]oxazol-2-yl(4-(benzo[d]thiazol-2-yl)-1,4,6,7-tetrahydro-5H-imidazo[4,5-c]pyridin-5-yl)methanone], the half-maximal activity concentration (AC50) was 1 to 5 µM. As to `O=C(c1nc2ccccc2[nH]1)N1CCc2[nH]cnc2[C@H]1c1nc2ccccc2s1` [Example 1131], the AC50 lay within 0.5 to 1 µM.

On to `O=C(c1nc2ccccc2[nH]1)N1CCc2[nH]cnc2[C@@H]1c1nc2ccccc2s1` [Example 1132, (R)-(1H-benzo[d]imidazol-2-yl)(4-(benzo[d]thiazol-2-yl)-6,7-dihydro-1H-imidazo[4,5-c]pyridin-5(4H)-yl)methanone], for which the AC50 lay in the range of 1 to 5 µM. On to `O=C(CCC1CC1)N1CCc2[nH]cnc2[C@H]1c1nc2cccc(F)c2s1` [Example 1133, (S)-3-cyclopropyl-1-(4-(7-fluorobenzo[d]thiazol-2-yl)-6,7-dihydro-1H-imidazo[4,5-c]pyridin-5(4H)-yl)propan-1-one], for which the concentration at half-maximal activity (AC50) was in the range of 0.5 to 1 µM. As to `O=C(CCC1CC1)N1CCc2[nH]cnc2[C@@H]1c1nc2cccc(F)c2s1` [Example 1134, (R)-3-cyclopropyl-1-(4-(7-fluorobenzo[d]thiazol-2-yl)-6,7-dihydro-1H-imidazo[4,5-c]pyridin-5(4H)-yl)propan-1-one], the concentration at half-maximal activity (AC50) lay within 1 to 5 µM.

For the compound `O=C(CC1CC1)N1CCc2[nH]cnc2[C@H]1c1nc2cc(F)ccc2s1` [Example 1135, (S)-2-cyclopropyl-1-(4-(5-fluorobenzo[d]thiazol-2-yl)-6,7-dihydro-1H-imidazo[4,5-c]pyridin-5(4H)-yl)ethanone], the AC50 is 0.5 to 1 µM. As to `O=C(CC1CC1)N1CCc2[nH]cnc2[C@@H]1c1nc2cc(F)ccc2s1` [Example 1136, (R)-2-cyclopropyl-1-(4-(5-fluorobenzo[d]thiazol-2-yl)-6,7-dihydro-1H-imidazo[4,5-c]pyridin-5(4H)-yl)ethanone], the AC50 was 1 to 5 µM. For `O=C(c1cnn2ccc(Br)cc12)N1CCc2[nH]cnc2[C@H]1c1nc2ccc(F)cc2s1` [Example 1137], the AC50 lay in the range of 0.5 to 1 µM.

As to `O=C(c1cnn2ccc(Br)cc12)N1CCc2[nH]cnc2[C@@H]1c1nc2ccc(F)cc2s1` [Example 1138, (R)-(5-bromopyrazolo[1,5-a]pyridin-3-yl)(4-(6-fluorobenzo[d]thiazol-2-yl)-6,7-dihydro-1H-imidazo[4,5-c]pyridin-5(4H)-yl)methanone], the concentration at half-maximal activity (AC50) lay within 1 to 5 µM. Consider `c1ccc2sc([C@@H]3c4nc[nH]c4CCN3Cc3nccs3)nc2c1` [Example 1139, (S)-2-(5-(thiazol-2-ylmethyl)-4,5,6,7-tetrahydro-1H-imidazo[4,5-c]pyridin-4-yl)benzo[d]thiazole], for which the half-maximal activity concentration (AC50) was in the range of 0.5 to 1 µM. On to `c1ccc2sc([C@H]3c4nc[nH]c4CCN3Cc3nccs3)nc2c1` [Example 1140, (R)-2-(5-(thiazol-2-ylmethyl)-4,5,6,7-tetrahydro-1H-imidazo[4,5-c]pyridin-4-yl)benzo[d]thiazole], for which the AC50 is 1 to 5 µM.

Regarding `O=C(c1scnc1Cl)N1CCc2[nH]cnc2[C@@H]1c1nc2ccc(F)cc2s1` [Example 1141], the AC50 was > 5 µM. Turning to `O=C(c1nc(Cl)cs1)N1CCc2[nH]cnc2[C@H]1c1nc2ccc(F)cc2s1` [Example 1142], the AC50 was in the range of 0.5 to 1 µM. For `O=C(c1ncn2ccccc12)N1CCc2[nH]cnc2[C@H]1c1nc2c(F)cccc2s1` [Example 1143, (S)-(4-(4-fluorobenzo[d]thiazol-2-yl)-6,7-dihydro-1H-imidazo[4,5-c]pyridin-5(4H)-yl)(imidazo[1,5-a]pyridin-1-yl)methanone], the concentration at half-maximal activity (AC50) was in the range of 0.5 to 1 µM. With `O=C(c1ncn2ccccc12)N1CCc2[nH]cnc2[C@@H]1c1nc2c(F)cccc2s1` [Example 1144, (R)-(4-(4-fluorobenzo[d]thiazol-2-yl)-6,7-dihydro-1H-imidazo[4,5-c]pyridin-5(4H)-yl)(imidazo[1,5-a]pyridin-1-yl)methanone] the figure was > 5 µM.
